According to ChEMBL document CHEMBL4177526, “Discovery and structure activity relationship of the first potent cryptosporidium FIKK kinase inhibitor” (Bioorg Med Chem, 2017):

Target: Inhibitor of nuclear factor kappa-B kinase subunit epsilon (Homo sapiens) (UniProt Q14164)
Experiment: Inhibition of human IKKepsilon (1 to 716 residues) assessed as residual activity at 500 nM in presence of 33P-ATP by filter binding assay relative to control

Sequence of Inhibitor of nuclear factor kappa-B kinase subunit epsilon (Homo sapiens) (Q14164 whole entry, the tested form may be a part): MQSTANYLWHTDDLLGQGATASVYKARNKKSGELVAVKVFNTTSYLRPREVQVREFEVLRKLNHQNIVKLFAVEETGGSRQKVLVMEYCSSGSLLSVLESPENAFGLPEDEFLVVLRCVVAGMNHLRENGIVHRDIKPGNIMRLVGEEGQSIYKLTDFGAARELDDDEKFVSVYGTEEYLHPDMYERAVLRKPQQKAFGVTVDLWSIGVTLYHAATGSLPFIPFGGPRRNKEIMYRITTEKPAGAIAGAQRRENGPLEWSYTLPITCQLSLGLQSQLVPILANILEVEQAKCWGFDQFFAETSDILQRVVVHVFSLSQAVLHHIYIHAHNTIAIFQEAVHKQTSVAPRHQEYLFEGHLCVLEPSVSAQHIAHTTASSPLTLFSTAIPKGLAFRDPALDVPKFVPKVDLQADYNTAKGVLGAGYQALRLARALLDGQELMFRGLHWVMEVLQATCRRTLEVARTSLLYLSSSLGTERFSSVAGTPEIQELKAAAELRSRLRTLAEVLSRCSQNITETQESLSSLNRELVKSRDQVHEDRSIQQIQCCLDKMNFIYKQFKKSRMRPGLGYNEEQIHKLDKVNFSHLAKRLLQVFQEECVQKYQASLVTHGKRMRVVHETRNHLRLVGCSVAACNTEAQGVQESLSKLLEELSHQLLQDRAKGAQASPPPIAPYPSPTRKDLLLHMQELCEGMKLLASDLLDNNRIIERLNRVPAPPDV

- Activity: 101%
Structure (SMILES): Cc1cccc(-c2nc(N)sc2-c2ccc3ncccc3n2)c1
